Experimental data reported in patent publication US20090117545A1 (priority 2004, published 2009).
“And” between values parts separate entries of the source, which are not always exact repeats. Equal entries are not always repeated. “Also recorded” adds a separate entry of the source.

Experiments:
[1] = test system: VC I-II RNA (tandem type I and type II glycine aptamers, VC1422 gene); assay: In-line probing of VC I-II RNA; format: binding, Vibrio cholerae; conditions: for structural modulation (change in pattern of spontaneous cleavage) of VC I-II: ligand at 1 mM
Experimental: In-line probing of the VC I-II construct (FIG. 1B), derived from the VC1422 gene from V. cholerae, was carried out with trace amounts of 5′ ^32P-labeled RNA using methods that are similar to those described elsewhere in Nahvi et al., Chem. Biol. 9, 1043 (2002), and Winkler et al., Nature 419, 952 (2002). RNAs were prepared by transcription from the appropriate DNA template carrying a T7 RNA polymerase promoter, which was generated by PCR from V. cholerae (C6706-st2) genomic DNA using the primers 5′-[sequence]-[sequence] […] The underlined nucleotides identify sequences corresponding to the promoter for T7 RNA polymerase.
In a typical in line probing assay, ˜15 nM of labeled RNA is incubated in buffer (20 mM MgCl2, 50 mM Tris, pH 8.3 at 25° C., 100 mM KCl) in the absence or presence of ligand for 40 hrs at 23° C. After incubation, spontaneously cleaved products were separated using 10% denaturing PAGE and were visualized and quantitated using a PhosphorImager (Molecular Dynamics).
Lowercase letters in FIG. 1B and FIG. 8A identify nucleotides that were added to the construct to permit efficient transcription in vitro using RiboMAX transcription (Promega). For the data presented in FIG. 5, fraction bound equals 1 minus the normalized fraction cleaved in the in-line probing assay at U207-C208 for VC II and U74 for VC I-II.
Curves for the absence of cooperativity (blue curve, n=1) and presence of perfect cooperativity at two binding sites (orange curve, n=2) are depicted. […] The fraction of RNA cleaved at four regions in both RNA constructs was determined by in-line probing. The amount of cleavage was normalized to range from 0 to 1 using the minimum and maximum amounts cleaved for each region.

VC II RNA = assay: Equilibrium dialysis with 3H-glycine, VC II RNA; format: binding, Vibrio cholerae; conditions: for restoration of equal distribution of 3H-glycine by unlabeled competitor: VC II 100 μM, excess (1 mM) unlabeled competitor after preequilibration
Experimental: (§1) Methods used for equilibrium dialysis were similar to those described in Mandal et al., Cell 113, 577 (2003). Specifically, equilibrium dialysis assays were conducted using a DispoEquilibrium Dialyzer (Harvard Biosciences), wherein chamber a and b are separated by a 5,000 MWCO membrane. […] Chamber b contained VC II or VC I-II RNA transcripts at 100 μM concentration suspended in the same buffer. Equilibrations were allowed to proceed for 10 hrs at 23° C. Subsequently 5 μL of sample was drawn from each chamber and quantitated by liquid scintillation counting. […] For both RNAs, experiments i-iii (FIG. 4B) were conducted by first pre-equilibrating the chambers (left data point), and then adding unlabeled competitor as indicated followed by a second equilibration (right data point). RNAs were prepared by in vitro transcription using the appropriate PCR DNA templates as described above.
(§2) Other notations are the same as those described for FIG. 1C.

VC I-II RNA = assay: Equilibrium dialysis with 3H-glycine, VC I-II RNA; format: binding, Vibrio cholerae; conditions: for restoration of equal distribution of 3H-glycine by unlabeled competitor: VC I-II 100 μM, excess (1 mM) unlabeled competitor after preequilibration
Experimental: as §1, §2

[2] = test system: gcvT 5'-UTR glycine riboswitch; assay: Single-round in vitro transcription termination assay; format: biochemical, Bacillus subtilis; conditions: for effect on production of full-length RNA transcripts: single-round in vitro transcription
Experimental: Transcription termination assays were conducted as described previously (Sudarsan et al., Genes Dev. 17, 2688 (2003); Landick et al., Methods Enzymol. 274, 334 (1996)).
Transcription assays were performed using a method adapted from that described earlier (Edelstein, Annu. Rev. Biochem. 44, 209 (1975)). […] DNA templates encompassing nucleotides −406 to +7 relative to the translation start site for the gcvT operon in B. subtilis were used. Transcription assays included 20 mM Tris-HCl (pH 8.0 at 23° C.), 20 mM NaCl, 14 mM MgCl2, 0.1 mM EDTA, 0.01 mg/mL BSA, and 1% v/v glycerol. Each reaction (10 μL) contained 1 pmole of template DNA and 9 U E. coli RNA polymerase (Epicenter) and was conducted with the type and concentration of target molecule as indicated for each experiment. Transcription was initiated by the addition of the dinucleotide ApA (135 μM), GTP and UTP (2.5 μM each), ATP (1 μM), and [α-^32P]-ATP (4_Ci). After 5 min incubation at 37° C., 50 μM of each NTP was added along with 0.1 mg/mL heparin to prevent re-initiation by RNA polymerase. Transcription products generated after a 10 minute incubation were separated by denaturing 6% PAGE and visualized by using a PhosphorImager. […] Single-round transcription assays were conducted as described for FIG. 9A. […] Single-round transcription assays were conducted as described for FIG. 9A with 50 μM rNTPs.

[3] = test system: wild-type gcvT IGR fused to β-galactosidase reporter gene; conditions: amino acid present in growth medium
Description: Specifically, nucleotides −429 to +7 relative to the B. subtilis gcvT translation start site of the first open reading frame of the gcvT operon was PCR amplified as an EcoRI-BamHI fragment from B. subtilis strain 1A2 (Bacillus Genetic Stock Center, Columbus, Ohio). The wild type construct was cloned into pDG1661 at a site directly upstream of the lacZ reporter gene. […] The IGR used for this study (FIG. 8A) differed in sequence at three nucleotides (151-153, TTT to AAA) relative to the genomic database. Plasmids generated were integrated into the amyE locus of strain 1A2. Transformants were selected for chloramphenicol (5 μg/ml) resistance and screened for sensitivity to spectinomycin (100 μg/ml). Cells were grown in defined media (0.5% w/v glucose, 2 g/L (NH4)2SO4, 25 g/L K2HPO4-3H2O, 6 g/L KH2PO4, 1 g/L sodium citrate, 0.2 g/L MgSO4-7H2O, 2 μM MnCl2, 15 mM glutamate, and 5 mg/L chloramphenicol) to an A595 of 0.1, pelleted, and resuspended in minimal media supplemented with 500 μg/L of amino acid as indicated for each experiment. Cultures were incubated for an additional 3 hr and β-galactosidase assays were performed as described previously (Miller, A Short Course in Bacterial Genetics (Cold Spring Harbor Laboratory Press, Cold Spring Harbor, N.Y., 1992)). Miller units plotted are the average of six values (three assays conducted in duplicate).

[4] = test system: VC II RNA (type II glycine aptamer alone); assay: In-line probing of VC II RNA; format: binding, Vibrio cholerae; conditions: for EC50: in-line probing, read-out: concentration of ligand needed to cause half-maximal structure modulation of VC II
[5] = test system: variant VC I-II construct wherein aptamer II has been mutated; conditions: relative to wild-type VC I-II

| Structure (SMILES) | structural modulation (change in pattern of spontaneous cleavage) of VC I-II [1] | restoration of equal distribution of 3H-glycine by unlabeled competitor (VC II RNA) | restoration of equal distribution of 3H-glycine by unlabeled competitor (VC I-II RNA) | effect on production of full-length RNA transcripts [2] | EC50 [4] [µM] | further results |
| --- | --- | --- | --- | --- | --- | --- |
| C[C@H](N)C(=O)O [L-alanine] | did not induce change | failed to restore equal distribution | failed to restore equal distribution | failed to trigger an increase | – | expression of β-galactosidase reporter [3]: low amount of gene expression |
| N[C@@H](CO)C(=O)O [L-serine] | – | failed to restore equal distribution | failed to restore equal distribution | rejected; also recorded: failed to trigger an increase | – | – |
| CC(C)(C)OC(=O)CN [glycine tertiary butyl ester, glycine tert-butyl ester] | measurable structural modulation | – | – | – | ~1000 | – |
| NCC(=O)NO [glycine hydroxamate] | – | – | – | – | ~1000 | – |
| NCC(=O)O [glycine] | caused changes in the pattern of spontaneous cleavage | restored an equal distribution | restored an equal distribution | substantial increase in the amount of full-length RNA transcript | ~10 | increase in glycine concentration for change from 10% to 90% ligand-bound RNA ([1]; VC I-II): 10 fold; Hill coefficient n ([1]; VC I-II, best fit of four regions, maximum for two sites is 2): 1.64 and 1.64±0.07; Kd ([1]; VC I-II, best fit of four regions, read-out: constant K of Hill equation): 40 ± 1 µM; Hill constant n ([4]; VC II, best fit of four regions): 0.97±0.04; Kd ([4]; VC II, best fit of four regions, read-out: constant K of Hill equation): 24 ± 12 µM; increase in glycine concentration for change from 10% to 90% ligand-bound RNA ([4]; single aptamer RNA, printed as VC I RNA): 100 fold; equivalents of glycine bound by RNA (VC II RNA; three equivalents of glycine versus one equivalent of VC II RNA (100 μM), 1 expected): 0.8 equivalents; increase in the amount of glycine bound by RNA (VC I-II RNA; one equivalent of VC I-II RNA (two aptamer equivalents) versus VC II, 2 expected): 1.6 fold; glycine concentration at which full-length transcripts are favored ([2]; added to transcription mixture): > 10 µM; Hill coefficient of best-fit curve to transcription data ([2]; yield of full-length transcripts versus glycine): 1.4; loss of affinity in the unaltered aptamer I [5]: more than 1,000 fold |
| COC(=O)CN [glycine methyl ester] | measurable structural modulation | – | – | – | ~100 | – |
